Source: ChEMBL document CHEMBL1649226, “Species identification and antifungal susceptibility patterns of species belonging to Aspergillus section Nigri” (2009)

Assays:
Type in all cases: functional
[1] = tested on: Aspergillus niger; assay: Antifungal activity against Aspergillus niger isolate CM-3236 obtained from respiratory tract infection of patient assessed as inhibition of hyphal growth after 48 hrs; details: isolate CM-3236, 48 h, read-out: MEC
[2] = tested on: Aspergillus niger; assay: Antifungal activity against Aspergillus niger isolate CM-3257 obtained from respiratory tract infection of patient assessed as inhibition of hyphal growth after 48 hrs; details: isolate CM-3257, 48 h, read-out: MEC
[3] = tested on: Aspergillus niger; assay: Antifungal activity against Aspergillus niger isolate CM-3506 obtained from respiratory tract infection of patient assessed as inhibition of hyphal growth after 48 hrs; details: isolate CM-3506, 48 h, read-out: MEC
[4] = tested on: Aspergillus tubingensis; assay: Antifungal activity against Aspergillus tubingensis isolate CM-3507 obtained from respiratory tract infection of patient assessed as inhibition of hyphal growth after 48 hrs; details: isolate CM-3507, 48 h, read-out: MEC
[5] = tested on: Aspergillus tubingensis; assay: Antifungal activity against Aspergillus tubingensis isolate CM-3585 assessed as inhibition of hyphal growth after 48 hrs; details: isolate CM-3585, 48 h, read-out: MEC
[6] = tested on: Aspergillus niger; assay: Antifungal activity against Aspergillus niger isolate CM-3586 obtained from catheter of patient assessed as inhibition of hyphal growth after 48 hrs; details: isolate CM-3586, 48 h, read-out: MEC
[7] = tested on: Aspergillus niger; assay: Antifungal activity against Aspergillus niger isolate CM-3636 obtained from respiratory tract infection of patient assessed as inhibition of hyphal growth after 48 hrs; details: isolate CM-3636, 48 h, read-out: MEC
[8] = tested on: Aspergillus niger; assay: Antifungal activity against Aspergillus niger isolate CM-3641 obtained from respiratory tract infection of patient assessed as inhibition of hyphal growth after 48 hrs; details: isolate CM-3641, 48 h, read-out: MEC
[9] = tested on: Aspergillus niger; assay: Antifungal activity against Aspergillus niger isolate CM-3672 obtained from cutaneous layer of patient assessed as inhibition of hyphal growth after 48 hrs; details: isolate CM-3672, 48 h, read-out: MEC
[10] = tested on: Aspergillus niger; assay: Antifungal activity against Aspergillus niger isolate CM-4004 obtained from assessed as inhibition of hyphal growth after 48 hrs; details: isolate CM-4004, 48 h, read-out: MEC
[11] = tested on: Aspergillus niger; assay: Antifungal activity against Aspergillus niger isolate CM-4213 obtained from respiratory tract infection of patient assessed as inhibition of hyphal growth after 48 hrs; details: isolate CM-4213, 48 h, read-out: MEC
[12] = tested on: Aspergillus tubingensis; assay: Antifungal activity against Aspergillus tubingensis isolate CM-4264 obtained from blood culture assessed as inhibition of hyphal growth after 48 hrs; details: isolate CM-4264, 48 h, read-out: MEC
[13] = tested on: Aspergillus tubingensis; assay: Antifungal activity against Aspergillus tubingensis isolate CM-4296 obtained from respiratory tract infection of patient assessed as inhibition of hyphal growth after 48 hrs; details: isolate CM-4296, 48 h, read-out: MEC
[14] = tested on: Aspergillus niger; assay: Antifungal activity against Aspergillus niger isolate CM-4316 obtained from respiratory tract infection of patient assessed as inhibition of hyphal growth after 48 hrs; details: isolate CM-4316, 48 h, read-out: MEC
[15] = tested on: Aspergillus tubingensis; assay: Antifungal activity against Aspergillus tubingensis isolate CM-5094 obtained from respiratory tract infection of patient assessed as inhibition of hyphal growth after 48 hrs; details: isolate CM-5094, 48 h, read-out: MEC
[16] = tested on: Aspergillus niger; assay: Antifungal activity against Aspergillus niger isolate CM-5095 obtained from respiratory tract infection of patient assessed as inhibition of hyphal growth after 48 hrs; details: isolate CM-5095, 48 h, read-out: MEC
[17] = tested on: Aspergillus tubingensis; assay: Antifungal activity against Aspergillus tubingensis isolate CM-3123 obtained from respiratory tract infection of patient assessed as inhibition of hyphal growth after 48 hrs; details: isolate CM-3123, 48 h, read-out: MEC
[18] = tested on: Aspergillus tubingensis; assay: Antifungal activity against Aspergillus tubingensis isolate CM-3810 obtained from respiratory tract infection of patient assessed as inhibition of hyphal growth after 48 hrs; details: isolate CM-3810, 48 h, read-out: MEC
[19] = tested on: Aspergillus tubingensis; assay: Antifungal activity against Aspergillus tubingensis isolate CM-4003 assessed as inhibition of hyphal growth after 48 hrs; details: isolate CM-4003, 48 h, read-out: MEC
[20] = tested on: Aspergillus tubingensis; assay: Antifungal activity against Aspergillus tubingensis isolate CM-4005 assessed as inhibition of hyphal growth after 48 hrs; details: isolate CM-4005, 48 h, read-out: MEC
[21] = tested on: Aspergillus tubingensis; assay: Antifungal activity against Aspergillus tubingensis isolate CM-4688 obtained from respiratory tract infection of patient assessed as inhibition of hyphal growth after 48 hrs; details: isolate CM-4688, 48 h, read-out: MEC
[22] = tested on: Aspergillus foetidus; assay: Antifungal activity against Aspergillus foetidus isolate CM-5264 obtained from respiratory tract infection of patient assessed as inhibition of hyphal growth after 48 hrs; details: isolate CM-5264, 48 h, read-out: MEC
[23] = tested on: Aspergillus tubingensis; assay: Antifungal activity against Aspergillus tubingensis isolate CM-3125 obtained from respiratory tract infection of patient assessed as inhibition of hyphal growth after 48 hrs; details: isolate CM-3125, 48 h, read-out: MEC
[24] = tested on: Aspergillus tubingensis; assay: Antifungal activity against Aspergillus tubingensis isolate CM-3177 obtained from respiratory tract infection of patient assessed as inhibition of hyphal growth after 48 hrs; details: isolate CM-3177, 48 h, read-out: MEC
[25] = tested on: Aspergillus niger; assay: Antifungal activity against Aspergillus niger isolate CM-3551 obtained from respiratory tract infection of patient assessed as inhibition of hyphal growth after 48 hrs; details: isolate CM-3551, 48 h, read-out: MEC
[26] = tested on: Aspergillus tubingensis; assay: Antifungal activity against Aspergillus tubingensis isolate CM-3654 obtained from blood culture assessed as inhibition of hyphal growth after 48 hrs; details: isolate CM-3654, 48 h, read-out: MEC
[27] = tested on: Aspergillus tubingensis; assay: Antifungal activity against Aspergillus tubingensis isolate CM-4000 by broth dilution method assessed as inhibition of hyphal growth after 48 hrs; details: isolate CM-4000, 48 h, read-out: MEC
[28] = tested on: Aspergillus tubingensis; assay: Antifungal activity against Aspergillus tubingensis isolate CM-4001 assessed as inhibition of hyphal growth after 48 hrs; details: isolate CM-4001, 48 h, read-out: MEC
[29] = tested on: Aspergillus foetidus; assay: Antifungal activity against Aspergillus foetidus isolate CM-4002 assessed as inhibition of hyphal growth after 48 hrs; details: isolate CM-4002, 48 h, read-out: MEC
[30] = tested on: Aspergillus niger; assay: Antifungal activity against Aspergillus niger isolate CM-4262 obtained from Ophthalmic assessed as inhibition of hyphal growth after 48 hrs; details: isolate CM-4262, 48 h, read-out: MEC
[31] = tested on: Aspergillus tubingensis; assay: Antifungal activity against Aspergillus tubingensis isolate CM-4352 obtained from respiratory tract infection of patient assessed as inhibition of hyphal growth after 48 hrs; details: isolate CM-4352, 48 h, read-out: MEC
[32] = tested on: Aspergillus tubingensis; assay: Antifungal activity against Aspergillus tubingensis isolate CM-4897 obtained from blood culture assessed as inhibition of hyphal growth after 48 hrs; details: isolate CM-4897, 48 h, read-out: MEC
[33] = tested on: Aspergillus tubingensis; assay: Antifungal activity against Aspergillus tubingensis isolate CM-4899 obtained from respiratory tract infection of patient assessed as inhibition of hyphal growth after 48 hrs; details: isolate CM-4899, 48 h, read-out: MEC
[34] = tested on: Aspergillus foetidus; assay: Antifungal activity against Aspergillus foetidus isolate CM-4995 obtained from prosthesis assessed as inhibition of hyphal growth after 48 hrs; details: isolate CM-4995, 48 h, read-out: MEC

Compound: CC[C@H](C)C[C@H](C)CCCCCCCCC(=O)N[C@H]1C[C@@H](O)[C@@H](NCCN)NC(=O)[C@@H]2[C@@H](O)CCN2C(=O)[C@H]([C@H](O)CCN)NC(=O)[C@H]([C@H](O)[C@@H](O)c2ccc(O)cc2)NC(=O)[C@@H]2C[C@@H](O)CN2C(=O)[C@H]([C@@H](C)O)NC1=O [CASPOFUNGIN]
- minimal effective concentration [1]: 0.25 µg/mL
- minimal effective concentration [2]: 0.25 µg/mL
- minimal effective concentration [3]: 0.15 µg/mL
- minimal effective concentration [4]: 0.06 µg/mL
- minimal effective concentration [5]: 0.37 µg/mL
- minimal effective concentration [6]: 1 µg/mL
- minimal effective concentration [7]: 0.25 µg/mL
- minimal effective concentration [8]: 0.5 µg/mL
- minimal effective concentration [9]: 0.15 µg/mL
- minimal effective concentration [10]: 0.1 µg/mL
- minimal effective concentration [11]: 0.39 µg/mL
- minimal effective concentration [12]: 0.03 µg/mL
- minimal effective concentration [13]: 0.25 µg/mL
- minimal effective concentration [14]: 0.25 µg/mL
- minimal effective concentration [15]: 0.19 µg/mL
- minimal effective concentration [16]: 0.25 µg/mL
- minimal effective concentration [17]: 0.25 µg/mL
- minimal effective concentration [18]: 0.5 µg/mL
- minimal effective concentration [19]: 0.25 µg/mL
- minimal effective concentration [20]: 0.5 µg/mL
- minimal effective concentration [21]: 0.18 µg/mL
- minimal effective concentration [22]: 0.06 µg/mL
- minimal effective concentration [23]: 0.05 µg/mL
- minimal effective concentration [24]: 0.05 µg/mL
- minimal effective concentration [25]: 0.03 µg/mL
- minimal effective concentration [26]: 0.14 µg/mL
- minimal effective concentration [27]: 0.1 µg/mL
- minimal effective concentration [28]: 0.11 µg/mL
- minimal effective concentration [29]: 0.14 µg/mL
- minimal effective concentration [30]: 0.13 µg/mL
- minimal effective concentration [31]: 0.15 µg/mL
- minimal effective concentration [32]: 0.1 µg/mL
- minimal effective concentration [33]: 0.1 µg/mL
- minimal effective concentration [34]: 0.14 µg/mL
